This is an account of results in paper PMC7913237, “Small-Molecule Anti-HIV-1 Agents Based on HIV-1 Capsid Proteins” (Biomolecules, 2021).

Like-named read-outs stand apart in the source and are kept apart here.

What all share (format): cell-based
In series [1] the test system is X4-HIV-1 (NL4-3 strain). Put plainly: Anti-HIV activity: protection against HIV-1 (NL4-3 strain)-induced cytopathogenicity in MT-4 cells, MTT assay. The note with it: for EC50: 50% protection from HIV-1 (NL4-3 strain)-induced cytopathogenicity in MT-4 cells, 5 days, mean or mean ± SD; for inhibition at 25 µM: Human immunodeficiency virus 1, NL43, MT4, HIV-1 (NL4-3)-induced cytopathogenicity in MT-4 cells, printed in EC50 column; for anti-HIV activity (in words): summary of MTT assay results. As to the method:
(§1) For virus preparation, 293T/17 cells (Invitrogen), which are maintained in Dulbecco’s modified Eagle medium (DMEM) containing 10% FBS, in a T-75 flask were transfected with 10 μg of the pNL4-3 construct by the calcium phosphate method. The supernatant was collected 48 h after transfection, passed through a 0.45 μm filter, and stored at −80 °C as a stock virus. Inhibitory activities of test compounds against X4-HIV-1 (NL4-3 strain)-induced cytopathogenicity in MT-4 cells, which are maintained in RPMI-1640 containing 10% FBS, were assessed by the MTT assay. Various concentrations of test compound solutions were added to HIV-1-infected MT-4 cells at multiplicity of infection (MOI) of 0.001, and placed in wells of a 96-well microplate. The test compounds and the reference compounds such as AZT and AMD3100 were diluted by two-fold and five-fold, respectively. After 5 days’ incubation at 37 °C in a CO2 incubator, the number of viable cells was determined by the MTT assay. Cytotoxicities of the test compounds were determined based on reduction of the viability of MT-4 cells by the MTT assay. The p24 antigen content in the culture supernatant was measured using HIV-1 p24 antigen enzyme-linked immunosorbent assay (ELISA) kit according to manufacturer’s instructions (Zeptometrix, Buffalo, NY, USA). A reverse transcriptase inhibitor, AZT, a CXCR4 antagonist, AMD3100 (Sigma Aldrich, St. Louis, MO, USA) were employed as positive control compounds with anti-HIV activity.
(§2) The anti-HIV activity of the synthesized compounds was assessed based on protection against HIV-1 (NL4-3 strain)-induced cytopathogenicity in MT-4 cells by an MTT assay. The cytotoxicity of these compounds was determined based on reduction of the viability of MT-4 cells determined by an MTT assay.
In general terms: Damage to the host cells serves as the signal in cytopathic effect assays.

Series [2] can be described thus: Cytotoxicity: reduction of the viability of MT-4 cells, MTT assay. The note with it: human, MT-4 cells, 50% reduction of the viability of MT-4 cells. The method, then: as §1, §2
In general terms: Tetrazolium dyes change colour on reduction, which living cells bring about.

The subject of series [3] is HIV-1 (NL4-3 strain) p24 antigen production. Put plainly: microbe, parasite or virus in culture. As to the method:
as §1
These compounds were also evaluated by a different method, using an enzyme-linked immune sorbent assay (ELISA) based on their inhibitory effect against the viral p24 antigen expression in NL4-3 strain-infected MT-4 cells.

For series [4], the system named is MT-4 cells. Put plainly: Cytotoxicity: reduction of the viability of MT-4 cells, MTT assay. The settings on record: for CC50: 50% reduction of the viability of MT-4 cells; for cytotoxicity (in words): MT-4 cells MTT assay; for concentration below which no cytotoxicity was exhibited: MT-4 cells. As to the method: as §1, §2
The mark [5] stands for this setting: Human immunodeficiency virus 1, NL43, MT4, 120 h.
Where [6] appears, read: Human immunodeficiency virus 1, NL43, MT4, read-out: p24 ELISA EC50, 50% inhibition of viral p24 antigen production in NL4-3 strain-infected MT-4 cells.

The EC50 is the concentration giving half of the maximal effect. What is called CC50 is the concentration giving 50% cytotoxicity. For `c1cc(CN2CCCNCCNCCCNCC2)ccc1CN1CCCNCCNCCCNCC1` [AMD3100, reference compound], the figures for the EC50 in series [1] (setting [5]) and in series [3] (setting [6]) were 0.027 ± 0.0077 µM and 0.029 µM, respectively. In addition, the CC50 at 5 days in series [2] was > 50 µM.

`Cc1cn([C@H]2C[C@H](N=[N+]=[N-])[C@@H](CO)O2)c(=O)[nH]c1=O` [AZT, reference compound]: the EC50 in series [1] was 0.024 ± 0.015 µM; in series [3] (50% inhibition of viral p24 antigen production in NL4-3 strain-infected MT-4 cells, read-out: p24 ELISA EC50), 0.047 µM. The compound further came in with a CC50 in series [4] of 79 ± 42 µM.

Broadly, the inhibition is the share of the control response that was lost under treatment. As for `CSCC[C@H](C)OC(=O)[C@@H](N)c1ccccc1-c1cccc2ccccc12` [Compound 22], in series [1], 25 µM produced 31 ± 8.5% inhibition and the “anti-HIV activity (in words)” value is given as “weak anti-HIV activity”. For the same compound, in series [2], it took 33 ± 1.5 µM to reach half-maximal cytotoxicity (CC50 at 5 days). In addition, the “cytotoxicity (in words)” value in series [4] is on record as “relatively weak cytotoxicity”.

`CSCC[C@H](C)OC(=O)[C@@H](N)c1ccccc1-c1ccc2ccccc2c1` [Compound 24]: in series [1], the inhibition at 25 µM worked out at 40 ± 4.6% and the “anti-HIV activity (in words)” value is given as “weak anti-HIV activity”. For the same compound, it took 30 ± 2 µM to reach half-maximal cytotoxicity in series [2] (CC50 at 5 days). Moreover, the “cytotoxicity (in words)” value in series [4] was “relatively weak cytotoxicity”.

With `CSCC[C@H](C)OC(=O)[C@@H](N)c1ccccc1-c1coc2ccccc12` [Compound 27], in series [1], testing at 25 µM gave an inhibition of 11% and the “anti-HIV activity (in words)” value was “weak anti-HIV activity”. Further, the CC50 at 5 days in series [2] was 34 µM. Further, the “cytotoxicity (in words)” value in series [4] is recorded as “relatively weak cytotoxicity”.

As to `CSCC[C@H](C)OC(=O)[C@@H](N)c1ccccc1-c1csc2ccccc12` [Compound 28], in series [1], at 25 µM the inhibition was 31% and the “anti-HIV activity (in words)” value is recorded as “weak anti-HIV activity”. It took 45 µM to reach half-maximal cytotoxicity in series [2] (CC50 at 5 days). Further, the “cytotoxicity (in words)” value in series [4] is “relatively weak cytotoxicity”.

Turning to `COCC[C@H](C)OC(=O)[C@@H](N)c1ccccc1-c1c[nH]c2ccccc12` [Compound 30], the EC50 in series [1] (setting [5]) worked out at 26 ± 2.9 µM. In addition, the “anti-HIV activity (in words)” value in series [1] is “weak anti-HIV activity”. Also, in series [2], the CC50 at 5 days was > 50 µM. In addition, in series [4], the “concentration below which no cytotoxicity was exhibited” value is ≥ 50 µM.

Regarding `C[C@@H](CCSC(C)(C)C)OC(=O)[C@@H](N)c1ccccc1-c1c[nH]c2ccccc12` [Compound 34], it took 12 µM to reach a half-maximal effect in series [1] (setting [5]) (EC50). Half-maximal cytotoxicity in series [2] (CC50 at 5 days) was put at 17 µM.

`CC(C)SCC[C@H](C)OC(=O)[C@@H](N)c1ccccc1-c1c[nH]c2ccccc12` [Compound 35] returned an EC50 in series [1] (setting [5]) of 10 µM. The compound also registered a CC50 at 5 days in series [2] of 18 µM.

For `C[C@@H](CCSc1ccccc1)OC(=O)[C@@H](N)c1ccccc1-c1c[nH]c2ccccc12` [Compound 36], in series [1] (setting [5]), the EC50 worked out at 11 µM. The compound also came in with a CC50 at 5 days in series [2] of 17 µM.

`C[C@@H](CCS(C)(=O)=O)OC(=O)[C@@H](N)c1ccccc1-c1c[nH]c2ccccc12` [Compound 38]: in series [1], testing at 25 µM gave an inhibition of 34% and the “anti-HIV activity (in words)” value is “weak anti-HIV activity”. For the same compound, the CC50 at 5 days in series [2] was > 50 µM. Besides, in series [4], the “concentration below which no cytotoxicity was exhibited” value is ≥ 50 µM.

With `CSCC[C@H](C)OC(=O)[C@@H](N)c1ccccc1-c1c[nH]c2ccccc12` [MKN-1 (1)], in series [1], it took 4.5 ± 2.3 µM to reach a half-maximal effect (EC50) and the “anti-HIV activity (in words)” value is listed as “high anti-HIV activity”. In series [4], this compound gave a CC50 of 26 ± 8.8 µM. Also, the EC50 in series [3] (read-out: p24 ELISA EC50, 50% inhibition of viral p24 antigen production in NL4-3 strain-infected MT-4 cells) amounted to 8.5 µM.

In the case of `CSCC[C@H](C)OC(=O)[C@@H](N)c1ccccc1-c1c[nH]c2ccccc12` [MKN-1A (1A)], the results for the EC50 in series [1] (setting [5]) and in series [3] (setting [6]) were 8 µM and 14 µM, respectively. For the same compound, the “anti-HIV activity (in words)” value in series [1] is recorded as “significant anti-HIV activity”. In series [2], half-maximal cytotoxicity (CC50 at 5 days) was put at 38 µM.

Consider `CSCC[C@@H](C)OC(=O)[C@@H](N)c1ccccc1-c1c[nH]c2ccccc12` [MKN-1B (1B)], for which the EC50 was determined as 24 µM in series [1] (setting [5]) and 22 µM in series [3] (setting [6]). The “anti-HIV activity (in words)” value in series [1] is listed as “moderate anti-HIV activity”. Moreover, the midpoint of cytotoxicity in series [2], the CC50 at 5 days, lay at 37 µM.
